Assay results as given in patent publication US20260028451A1, “Amido-Amine Hardener” (priority 2022, published 2026).

Tests used:
MELN cells = format: cell-based, human
Experimental: The use of bisphenol A in epoxy systems is often avoided for this reason. Various phenolic compounds, such as phenolic Mannich bases may also pose a risk of acting as oestrogen agonists, this is thought to be due to structural similarity between the phenolic group and the phenolic group present in oestrogen itself. […]. The tests were performed using MELN cells [hER-stably transfected model of the human breast cancer MCF-7 cells]. The use of MELN cells for screening cytotoxicity and oestrogenic activity is a standard test known in the art, for example, as described in Berckmans P, Leppens H, Vangenechten C, Witters H., “Screening of endocrine disrupting chemicals with MELN cells, an ER-transactivation assay combined with cytotoxicity assessment”, Toxicol In Vitro. 2007, 21(7), 1262-7.

oestrogen receptor = molecular target: T1, oestrogen receptor (Homo sapiens, UniProt P03372); test: Oestrogenic activity testing using MELN cells (ER-transactivation assay); format: cell-based; details: hER-stably transfected MCF-7
T1 construct: MELN cells [hER-stably transfected model of the human breast cancer MCF-7 cells]; endogenous in cells; host or cells: MELN cells (MCF-7 human breast cancer cells)
T1 sequence (P03372 1-595): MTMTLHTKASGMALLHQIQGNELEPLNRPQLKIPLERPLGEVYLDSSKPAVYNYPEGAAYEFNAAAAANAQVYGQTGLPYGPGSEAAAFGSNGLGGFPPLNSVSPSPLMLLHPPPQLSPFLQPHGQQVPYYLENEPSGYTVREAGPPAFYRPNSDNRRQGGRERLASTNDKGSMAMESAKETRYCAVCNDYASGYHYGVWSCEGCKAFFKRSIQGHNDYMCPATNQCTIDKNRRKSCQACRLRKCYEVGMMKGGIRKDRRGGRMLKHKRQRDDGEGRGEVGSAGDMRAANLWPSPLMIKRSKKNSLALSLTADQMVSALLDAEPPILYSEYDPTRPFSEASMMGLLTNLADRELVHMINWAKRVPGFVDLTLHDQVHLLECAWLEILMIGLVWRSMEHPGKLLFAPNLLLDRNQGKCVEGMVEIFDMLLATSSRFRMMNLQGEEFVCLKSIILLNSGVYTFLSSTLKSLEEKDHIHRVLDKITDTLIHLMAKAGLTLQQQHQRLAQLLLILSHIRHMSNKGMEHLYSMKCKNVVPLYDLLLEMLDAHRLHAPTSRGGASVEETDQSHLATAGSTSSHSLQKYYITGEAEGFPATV
Experimental: Various phenolic compounds, such as phenolic Mannich bases may also pose a risk of acting as oestrogen agonists, this is thought to be due to structural similarity between the phenolic group and the phenolic group present in oestrogen itself. […] The tests were performed using MELN cells [hER-stably transfected model of the human breast cancer MCF-7 cells].

[1] = Viscosity at 25° C., ASTM D2556-14(2018); format: physicochemical; details: undiluted curative composition / product as prepared
Experimental: This material was then diluted with benzyl alcohol in order to reduce the viscosity. The relationship between the viscosity (as measured by ASTM D2556-14(2018)) and the vol % dilution with benzyl alcohol is shown in FIG. 1. […] The properties of a 63:37 vol/vol mixture of salicylamide Mannich base C:benzyl alcohol are shown below in Table 7.

| Agonist response (oestrogen receptor) | Viscosity at 25° C. [1] [m · Pas] | Compound | Cytotoxicity (MELN cells) |
| --- | --- | --- | --- |
|  |  | C[C@]12CC[C@@H]3c4ccc(O)cc4CC[C@H]3[C@@H]1CC[C@@H]2O [17β- oestradiol, 17β-oestradiol] | No |
| Positive |  | CC(C)(c1ccc(O)cc1)c1ccc(O)cc1 [Bisphenol A, bisphenol A] | No |
| Negative | 1130 | NCCNCCNCCNCc1cc(CNCCNCCNCCN)c(O)c(C(=O)NCCNCCNCCN)c1 [Salicylamide Mannich Base A] | No |
